For 46 molecules, Ki and melting point results are on record in patent US6342503B1, “1N-alkyl-n-arylpyrimidinamines and derivatives thereof” (DuPont Pharmaceuticals Company, priority 1993, dated 2002).

Data set [1] has as its target T1, CRF receptor (Rattus norvegicus, UniProt P35353).
T1 construct: 100 μl of membrane suspension as prepared above to give a total reaction volume of 300 μl; from tissue; host or cells: rat cerebral cortex membrane homogenate
T1 sequence (P35353 24-415): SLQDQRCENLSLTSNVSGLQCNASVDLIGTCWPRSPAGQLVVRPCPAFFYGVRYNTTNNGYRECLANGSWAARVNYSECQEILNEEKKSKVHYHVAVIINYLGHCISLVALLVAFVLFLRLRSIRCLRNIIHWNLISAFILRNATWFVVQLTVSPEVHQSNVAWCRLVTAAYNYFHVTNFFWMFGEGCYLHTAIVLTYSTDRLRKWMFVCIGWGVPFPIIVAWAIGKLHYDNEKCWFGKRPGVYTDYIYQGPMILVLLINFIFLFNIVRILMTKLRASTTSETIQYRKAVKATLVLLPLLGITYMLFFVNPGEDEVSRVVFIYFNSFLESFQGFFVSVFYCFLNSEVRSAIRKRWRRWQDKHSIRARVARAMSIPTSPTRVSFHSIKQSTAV
Put plainly: In vitro CRF receptor binding assay (competition with [125I] ovine CRF, rat cortex membranes). Particulars: read-out: Inhibition Ki.

Some results are limits rather than exact numbers.

For the molecule `CCN(c1nc(C)cc(C(=O)N2CCN(c3ccccc3OC)CC2)n1)c1ccc(C(C)C)cc1Br` [compound 268], the melting point – broadly, the temperature, or range, at which the solid turns liquid – is 57 to 60 °C. For the same molecule, in data set [1], the Ki (commonly a dissociation constant, usually derived from enzyme kinetics or from competition with a known ligand) was less than 500 nM.
Regarding `CCN(c1nc(C)cc(C)n1)c1ccc(C#N)cc1SC` [compound 186, N-(4-cyano-2-methylthiophenyl)-N-ethyl-4,6-dimethyl-2-pyrimidinamine], the melting point fell in the range of 99 to 100 °C. Besides, the Ki in data set [1] was less than 500 nM.
Regarding `Cc1cc(Cl)c2c(C#N)cn(-c3ccc(C(C)C)cc3Br)c2n1` [Example 255], the melting point worked out at 179.2 °C. Moreover, in data set [1], the Ki was 501 to 2000 nM.
The corresponding values for `CCN(c1nc(C)cc(N2CC[S+]([O-])CC2)n1)c1ccc(C(C)C)cc1I` [compound 56, N-ethyl-N-(2-iodo4-(1-methylethyl)phenyl)4-thiomorpholino-6-methyl-2-pyrimidinamine, S-oxide] are 52 to 55 °C and less than 500 nM.
Taken in the same sequence, the figures for `Cc1cc(N2CCCCC2)nc(N(C)c2ccc(C(C)C)cc2Br)n1` [compound 195] were 186 to 187 °C and less than 500 nM.
The molecule `COc1cc(Br)c(Nc2nc(C)cc(C)n2)c(OC)c1` [compound 203] showed a melting point of 177 to 179 °C. Besides, in data set [1], the inhibitory constant (Ki) fell in the range of 501 to 2000 nM.
Taken in the same sequence, the figures for `CCN(c1nc(C)cc(C(O)(c2ccccc2)c2ccccc2)n1)c1ccc(C(C)C)cc1Br` [compound 293] were 56 to 58 °C and less than 500 nM.
As to `CCN(c1nc(C)nc(C(C#N)c2ccccc2)n1)c1c(Br)cc(OC)cc1OC` (centres unmarked) [compound 247], the melting point was in the range of 50 to 52 °C. The Ki in data set [1] is less than 500 nM.
`COc1cc(Br)c(Nc2nc(C)cc(C)n2)c(Br)c1` [compound 223] gave a melting point of 175 to 177 °C. The Ki in data set [1] was 501 to 2000 nM.
Taken in the same sequence, the figures for `CCN(c1nc(C)cc(C)n1)c1ccc(OC)cc1OC` [compound 7] were 120 to 121 °C and less than 500 nM.
Turning to `CCN(c1nc(C)cc(C(=O)c2cccnc2)n1)c1ccc(C(C)C)cc1Br` [compound 284], the melting point was in the range of 165 to 167 °C. Further, the inhibition constant (Ki) in data set [1] was less than 500 nM.
As for `CCN(c1nc(C)cc(C)n1)c1cc(Br)c(OC)cc1OC` [compound 253, N-(3-Bromo-4,6-dimethoxyphenyl)-N-ethyl-4,6-dimethyl-2-pyrimidinamine], the melting point lay within 143 to 145 °C. The inhibition constant (Ki) in data set [1] was 501 to 2000 nM.
The corresponding values for `CCN(c1nc(C)cc(C)n1)c1ccc(C(C)=O)cc1SC` [compound 187, N-(4-acetyl-2-methylthiophenyl)-N-ethyl-4,6-dimethyl-2-pyrimidinamine] are 125 to 126 °C and less than 500 nM.
The molecule `CCN(c1nc(C)cc(C)n1)c1c(OC)cc(OC)cc1OC` [compound 15] registered a melting point of 115 to 116 °C. Besides, in data set [1], the inhibitory constant (Ki) is less than 500 nM.
`CCN(c1nc(C)cc(C(=O)N2CCN(c3ncccn3)CC2)n1)c1ccc(C(C)C)cc1Br` [compound 273] yielded a melting point of 114 to 116 °C. The inhibition constant Ki in data set [1] lay within 501 to 2000 nM.
The molecule `Cc1cc(N2CCSCC2)nc(Nc2c(Br)cc(C(C)C)cc2Br)n1` [compound 166, N-(2,6-dibromo-4-(1-methylethyl)phenyl)4-thiomorpholino-6-methyl-2-pyrimidinamine] displayed a melting point of 194 to 195 °C. For the same molecule, the Ki in data set [1] was less than 500 nM.
For `CCN(c1nc(C)cc(C)n1)c1ccc(C(C)C)cc1S(C)(=O)=O` [compound 174, N-(2-methylsulfonyl-4-(1-methylethyl)phenyl)-N-ethyl-4,6-dimethyl-2-pyrimidinamine], the melting point was 174 to 176 °C. Besides, the inhibition constant Ki in data set [1] is less than 500 nM.
Regarding `CCN(c1nc(C)cc(C)n1)c1c(Cl)cc(OC)cc1OC` [compound 141], the melting point is 99 to 102 °C. The inhibitory constant (Ki) in data set [1] is less than 500 nM.
With `Cc1cc(Cl)nc2c1c(C#N)cn2-c1ccc(C(C)C)cc1Br` [Example 262], the melting point stood at 123.8 °C. Also, the Ki in data set [1] was less than 500 nM.
In turn, `Cc1cc(C)c2c(C#N)cn(-c3ccc(C(C)C)cc3Br)c2n1` [Example 254] displayed a melting point of 105.8 °C. Also, the inhibition constant Ki in data set [1] is less than 500 nM.
In turn, `CCCN(c1nc(C)cc(C)n1)c1ccc(C(C)C)cc1Br` [compound 196] returned a melting point of 150 to 151 °C. Also, the Ki in data set [1] was less than 500 nM.
Molecule `COc1cc(Cl)c(Nc2nc(C)cc(C)n2)c(OC)c1` [compound 145] yielded a melting point of 170 to 173 °C. For the same molecule, the inhibition constant Ki in data set [1] lay in the range of 2000 to 10000 nM.
Turning to `CCN(c1nc(C)cc(C(O)(c2ccc(OC)cc2)c2ccc(OC)cc2)n1)c1ccc(C(C)C)cc1Br` [compound 289], the melting point was in the range of 63 to 65 °C. In addition, in data set [1], the inhibitory constant (Ki) is less than 500 nM.
Taken in the same sequence, the figures for `CCN(c1nc(C)nc(N2CCOCC2)n1)c1c(Br)cc(OC)cc1OC` [compound 237] were 90 to 95 °C and less than 500 nM.
The molecule `CCOC(=O)c1ccc(N(CC)c2nc(C)cc(C)n2)c(SC)c1` [compound 184, N-(4-carboethoxy-2-methylthiophenyl)-N-ethyl-4,6-dimethyl-2-pyrimidinamine] registered a melting point of 99 to 100 °C. In addition, in data set [1], the inhibitory constant (Ki) fell in the range of 501 to 2000 nM.
Consider `CCN(c1nc(C)nc(N2CCSC2)n1)c1ccc(C(C)C)cc1Br` [compound 241], for which the melting point was 70 to 72 °C. Moreover, the inhibition constant Ki in data set [1] is less than 500 nM.
As for `CCN(c1nc(C)nc(N(C)C)n1)c1ccc(C(C)C)cc1Br` [compound 240], the melting point was 72 to 75 °C. For the same molecule, the Ki in data set [1] was less than 500 nM.
`CCCCN(c1nc(C)cc(C)n1)c1ccc(C(C)C)cc1Br` [compound 197] returned a melting point of 159 to 160 °C. Also, the Ki in data set [1] is 501 to 2000 nM.
`CCN(c1nc(C)cc(C(=O)N(C)C)n1)c1ccc(C(C)C)cc1Br` [compound 282] showed a melting point of 80 to 82 °C. Also, the Ki in data set [1] is less than 500 nM.
Taken in the same sequence, the figures for `CCN(c1nc(C)cc(N2CCN(C=O)CC2)n1)c1ccc(C(C)C)cc1Br` [compound 25] were 61 to 63 °C and less than 500 nM.
`COc1cc(OC)c(N(C)c2nc(C)cc(C)n2)c(OC)c1` [compound 14] showed a melting point of 145 to 146 °C. The inhibition constant Ki in data set [1] lay in the range of 501 to 2000 nM.
In turn, `CCC(=O)c1ccc(N(CC)c2nc(C)cc(C)n2)c(SC)c1` [compound 188, N-(4-propionyl-2-methylthiophenyl)-N-ethyl-4,6-dimethyl-2-pyrimidinamine] showed a melting point of 139 to 141 °C. For the same molecule, in data set [1], the Ki is less than 500 nM.
For the molecule `CCN(c1nc(C)cc(C)n1)c1ccccc1Br` [compound 5], the melting point was in the range of 94 to 95 °C. Moreover, the inhibition constant Ki in data set [1] lay in the range of 501 to 2000 nM.
`CCN(c1nc(C)cc(C)n1)c1ccc(N(C)C)cc1SC` [compound 191, N-(4-(N,N-dimethylamino)-2-methylthiophenyl)-N-ethyl-4,6-dimethyl-2-pyrimidinamine] returned a melting point of 119 to 120 °C. Besides, the Ki in data set [1] is less than 500 nM.
`CCN(c1nc(C)cc(C)n1)c1ccc(Br)cc1SC` [compound 180, N-(4-bromo-2-methylthiophenyl)-N-ethyl-4,6-dimethyl-2-pyrimidinamine] returned a melting point of 91 to 93 °C. Further, the inhibition constant Ki in data set [1] is less than 500 nM.
`CCN(c1nc(C)cc(C(=O)N2CCCCC2)n1)c1ccc(C(C)C)cc1Br` [compound 60] displayed a melting point of 107 to 108 °C. Also, the inhibition constant (Ki) in data set [1] was 501 to 2000 nM.
Taken in the same sequence, the figures for `CCN(c1nc(C)cc(C)n1)c1ccc(OC)cc1SC` [compound 185, N-(4-methoxy-2-methylthiophenyl)-N-ethyl-4,6-dimethyl-2-pyrimidinamine] were 128 to 130 °C and less than 500 nM.
The corresponding values for `CCOc1cc(Br)c(N(CC)c2nc(C)cc(C)n2)c(Br)c1` [compound 224, N-(2,6-Dibromo-4-(ethoxy)phenyl)-N-ethyl-4,6-dimethyl-2-pyrimidinamine] are 107 to 108 °C and less than 500 nM.
For `CCN(c1nc(C)cc(C(=O)NC2CCCCC2)n1)c1ccc(C(C)C)cc1Br` [compound 62], the melting point is 115 °C. Further, the Ki in data set [1] lay within 501 to 2000 nM.
On to `CCN(c1nc(C)cc(C(=O)c2ccc(OC)cc2)n1)c1ccc(C(C)C)cc1Br` [compound 287], for which the melting point is 104 to 106 °C. For the same molecule, the Ki in data set [1] was 501 to 2000 nM.
Regarding `C=CCN(c1nc(C)cc(C)n1)c1c(Br)cc(OC)cc1OC` [compound 205], the melting point lay within 88 to 90 °C. Moreover, the Ki in data set [1] is less than 500 nM.
For `CCN(c1nc(C)cc(C)n1)c1c(Br)cc(OC)cc1Br` [compound 226], the melting point was in the range of 101 to 103 °C. In data set [1], the Ki is less than 500 nM.
The corresponding values for `CCN(c1nc(C)nc(Oc2ccccc2)n1)c1ccc(C(C)C)cc1Br` [compound 243] are 140 to 142 °C and 2000 to 10000 nM.
Regarding `Cc1cc(N2CCCC2)nc(N(C)c2ccc(C(C)C)cc2Br)n1` [compound 193], the melting point lay in the range of 119 to 120 °C. For the same molecule, in data set [1], the Ki is less than 500 nM.
As to `CCOc1cc(Br)c(Nc2nc(C)cc(C)n2)c(Br)c1` [compound 228], the melting point is 165 to 167 °C. For the same molecule, the inhibitory constant (Ki) in data set [1] lay within 501 to 2000 nM.
In the case of `CCN(c1nc(C)cc(C)n1)c1c(O)cc(OC)cc1Br` [compound 230, N-(2-Bromo-6-hydroxy-4-methoxyphenyl)-N-ethyl-4,6-dimethyl-2-pyrimidinamine], the melting point is 157 to 160 °C. Besides, the Ki in data set [1] is less than 500 nM.
